Experimental data from ChEMBL document CHEMBL1126440, “Design and synthesis of azabicyclic muscarinic agonists incorporating an oxime ether functionality” (Bioorg Med Chem Lett, 1992).

Assays:
[1] = target: Muscarinic acetylcholine receptor (Rattus norvegicus) (UniProt P08482+P08483+P08485+P08911+P10980); experiment: Relative affinity of oxotremorine-M (OXO-M) and [3H]quinuclidinyl benzilate (QNB) for muscarinic receptors; assay type: protein assay
[2] = target: Muscarinic acetylcholine receptor; experiment: Displacement of [3H]- oxotremorine-M (OXO-M) binding from muscarinic receptors of rat cerebral cortex; 44-170; assay type: tissue-based
[3] = target: Muscarinic acetylcholine receptor; experiment: Displacement of [3H]quinuclidinyl benzilate(QNB) binding from muscarinic receptors of rat cerebral cortex; 4800-6300; assay type: tissue-based
[4] = Ratio of change in mean blood pressure (BP) to that of mean power spectrum of EEG; assay type: functional
[5] = target: Muscarinic acetylcholine receptor; experiment: Displacement of [3H]quinuclidinyl benzilate(QNB) binding from muscarinic receptors of rat cerebral cortex; 1400-2700; assay type: tissue-based
Rattus norvegicus [6] = experiment: Effective dose required to cause 50% fall in mean blood pressure (BP) […] of urethane anesthetized rats after iv administration of compound; assay type: functional
[7] = target: Muscarinic acetylcholine receptor; experiment: Displacement of [3H]- oxotremorine-M (OXO-M) binding from muscarinic receptors of rat cerebral cortex; 12-62; assay type: tissue-based
Rattus norvegicus [8] = experiment: Dose required to produce a change in the mean power spectrum of EEG equivalent to that of a standard dose (0.32 mg/Kg i.v.) of arecoline after iv administration of compound; assay type: functional
[9] = target: Muscarinic acetylcholine receptor; experiment: Displacement of [3H]- oxotremorine-M (OXO-M) binding from muscarinic receptors of rat cerebral cortex; 155-265; assay type: tissue-based
[10] = target: Muscarinic acetylcholine receptor; experiment: Displacement of [3H]quinuclidinyl benzilate(QNB) binding from muscarinic receptors of rat cerebral cortex; 3400-8000; assay type: tissue-based
[11] = target: Muscarinic acetylcholine receptor; experiment: Displacement of [3H]quinuclidinyl benzilate(QNB) binding from muscarinic receptors of rat cerebral cortex; 2700-3000; assay type: tissue-based
[12] = target: Muscarinic acetylcholine receptor; experiment: Displacement of [3H]- oxotremorine-M (OXO-M) binding from muscarinic receptors of rat cerebral cortex; 230-335; assay type: tissue-based
[13] = target: Muscarinic acetylcholine receptor; experiment: Displacement of [3H]quinuclidinyl benzilate(QNB) binding from muscarinic receptors of rat cerebral cortex; 2500-5600; assay type: tissue-based
[14] = target: Muscarinic acetylcholine receptor; experiment: Displacement of [3H]- oxotremorine-M (OXO-M) binding from muscarinic receptors of rat cerebral cortex; assay type: tissue-based
[15] = target: Muscarinic acetylcholine receptor; experiment: Displacement of [3H]quinuclidinyl benzilate(QNB) binding from muscarinic receptors of rat cerebral cortex; 12500-16500; assay type: tissue-based
[16] = target: Muscarinic acetylcholine receptor; experiment: Displacement of [3H]- oxotremorine-M (OXO-M) binding from muscarinic receptors of rat cerebral cortex; 50-65; assay type: tissue-based
[17] = target: Muscarinic acetylcholine receptor; experiment: Displacement of [3H]- oxotremorine-M (OXO-M) binding from muscarinic receptors of rat cerebral cortex; 44-48; assay type: tissue-based
[18] = target: Muscarinic acetylcholine receptor; experiment: Displacement of [3H]quinuclidinyl benzilate(QNB) binding from muscarinic receptors of rat cerebral cortex; 2600-4400; assay type: tissue-based
[19] = target: Muscarinic acetylcholine receptor; experiment: Displacement of [3H]quinuclidinyl benzilate(QNB) binding from muscarinic receptors of rat cerebral cortex; 3400-10000; assay type: tissue-based
[20] = target: Muscarinic acetylcholine receptor; experiment: Displacement of [3H]- oxotremorine-M (OXO-M) binding from muscarinic receptors of rat cerebral cortex; 65-110; assay type: tissue-based
[21] = target: Muscarinic acetylcholine receptor; experiment: Displacement of [3H]quinuclidinyl benzilate(QNB) binding from muscarinic receptors of rat cerebral cortex; 6200-9000; assay type: tissue-based
[22] = target: Muscarinic acetylcholine receptor; experiment: Displacement of [3H]- oxotremorine-M (OXO-M) binding from muscarinic receptors of rat cerebral cortex; 83-128; assay type: tissue-based
[23] = target: Muscarinic acetylcholine receptor; experiment: Displacement of [3H]- oxotremorine-M (OXO-M) binding from muscarinic receptors of rat cerebral cortex; 10-30; assay type: tissue-based
[24] = target: Muscarinic acetylcholine receptor; experiment: Displacement of [3H]quinuclidinyl benzilate(QNB) binding from muscarinic receptors of rat cerebral cortex; 2000-4800; assay type: tissue-based
[25] = target: Muscarinic acetylcholine receptor; experiment: Displacement of [3H]- oxotremorine-M (OXO-M) binding from muscarinic receptors of rat cerebral cortex; 205-310; assay type: tissue-based
[26] = target: Muscarinic acetylcholine receptor; experiment: Displacement of [3H]quinuclidinyl benzilate(QNB) binding from muscarinic receptors of rat cerebral cortex; assay type: tissue-based
[27] = target: Muscarinic acetylcholine receptor; experiment: Displacement of [3H]- oxotremorine-M (OXO-M) binding from muscarinic receptors of rat cerebral cortex; 66-83; assay type: tissue-based
[28] = target: Muscarinic acetylcholine receptor; experiment: Displacement of [3H]quinuclidinyl benzilate(QNB) binding from muscarinic receptors of rat cerebral cortex; 1400-2900; assay type: tissue-based
[29] = target: Muscarinic acetylcholine receptor; experiment: Displacement of [3H]- oxotremorine-M (OXO-M) binding from muscarinic receptors of rat cerebral cortex; 90-155; assay type: tissue-based
[30] = target: Muscarinic acetylcholine receptor; experiment: Displacement of [3H]quinuclidinyl benzilate(QNB) binding from muscarinic receptors of rat cerebral cortex; 36000-40000; assay type: tissue-based

## COC(=O)C1CN2CCC1CC2 (stereo not drawn)
[1]
  Ratio: 48

## CO/N=C/C12CCCN(CC1)C2 (stereo not drawn)
[2]
  IC50: 0.06 µM
[3]
  IC50: 5.2 µM
[1]
  Ratio: 87

## C#CCO/N=C/[C@H]1CN2CC[C@H]1C2
[4]
  Ratio: 10.6
[5]
  IC50: 1.95 µM
Rattus norvegicus [6]
  ED50: 0.17 mg/kg
[7]
  IC50: 0.025 µM
[1]
  Ratio: 78
Rattus norvegicus [8]
  ED Arec: 0.016 mg/kg

## CC/C(=N\OC)[C@H]1CN2CC[C@H]1C2
[9]
  IC50: 0.208 µM
[1]
  Ratio: 25
[10]
  IC50: 5.2 µM

## CCCO/N=C/[C@H]1CN2CC[C@H]1C2
[11]
  IC50: 2.9 µM
[12]
  IC50: 0.278 µM
[1]
  Ratio: 10

## CCO/N=C/[C@H]1CN2CC[C@H]1C2
[4]
  Ratio: >7.8
Rattus norvegicus [6]
  ED50: > 1.8 mg/kg
[13]
  IC50: 3.7 µM
[1]
  Ratio: 23
Rattus norvegicus [8]
  ED Arec: 0.23 mg/kg
[14]
  IC50: 0.16 µM

## CO/N=C(\C)C12CCN(CC1)C2
[15]
  IC50: 14 µM
[1]
  Ratio: 255
[16]
  IC50: 0.055 µM

## CO/N=C(\C)C12CCCN(CC1)C2 (stereo not drawn)
[17]
  IC50: 0.046 µM
[1]
  Ratio: 74
[18]
  IC50: 3.4 µM

## CO/N=C/C1CN2CCC1CC2 (stereo not drawn)
[19]
  IC50: 5.8 µM
[20]
  IC50: 0.095 µM
[1]
  Ratio: 61

## CO/N=C(\C)[C@H]1CN2CC[C@H]1C2
[21]
  IC50: 7.5 µM
[1]
  Ratio: 76
[22]
  IC50: 0.099 µM

## CO/N=C/[C@H]1CN2CC[C@H]1C2
[4]
  Ratio: 1.5
[23]
  IC50: 0.015 µM
[24]
  IC50: 3.1 µM
Rattus norvegicus [6]
  ED50: 0.0031 mg/kg
Rattus norvegicus [8]
  ED Arec: 0.0021 mg/kg

## CCCCO/N=C/[C@H]1CN2CC[C@H]1C2
[1]
  Ratio: 14
[25]
  IC50: 0.252 µM
[26]
  IC50: 3.6 µM

## CO/N=C(\C)C1CN2CCC1CC2 (stereo not drawn)
[27]
  IC50: 0.069 µM
[1]
  Ratio: 29
[28]
  IC50: 2 µM

## CO/N=C/C12CCN(CC1)C2
[29]
  IC50: 0.118 µM
[1]
  Ratio: 321
[30]
  IC50: 38 µM
